ChEMBL document CHEMBL5360558, “Molecular design, synthesis and anticancer activity of new thiopyrano[2,3-d]thiazoles based on 5-hydroxy-1,4-naphthoquinone (juglone)” (Eur J Med Chem, 2023)
Calls of active or inactive are those of the source. No cut-off for these calls is given here.

Tests used:
MOLT-4 [1] = experiment: Growth inhibition of human MOLT-4 cells incubated for 48 hrs by sulforhodamine B spectrophotometric assay; assay type: functional
SW-620 [2] = experiment: Growth inhibition of human SW620 cells incubated for 48 hrs by sulforhodamine B spectrophotometric assay; assay type: functional
SF-539 = experiment: Growth inhibition of human SF-539 cells incubated for 48 hrs by sulforhodamine B spectrophotometric assay; assay type: functional
SNB-19 [3] = experiment: Growth inhibition of human SNB-19 cells incubated for 48 hrs by sulforhodamine B spectrophotometric assay; assay type: functional
LOX IMVI = experiment: Growth inhibition of human LOX IMVI cells incubated for 48 hrs by sulforhodamine B spectrophotometric assay; assay type: functional
MDA-MB-435 = experiment: Growth inhibition of human MDA-MB-435 cells incubated for 48 hrs by sulforhodamine B spectrophotometric assay; assay type: functional
SK-MEL-2 = experiment: Growth inhibition of human SK-MEL-2 cells incubated for 48 hrs by sulforhodamine B spectrophotometric assay; assay type: functional
OVCAR-3 = experiment: Growth inhibition of human OVCAR-3 cells incubated for 48 hrs by sulforhodamine B spectrophotometric assay; assay type: functional
OVCAR-4 = experiment: Growth inhibition of human OVCAR-4 cells incubated for 48 hrs by sulforhodamine B spectrophotometric assay; assay type: functional
SK-OV-3 = experiment: Growth inhibition of human SK-OV-3 cells incubated for 48 hrs by sulforhodamine B spectrophotometric assay; assay type: functional
786-0 = experiment: Growth inhibition of human 786-0 cells incubated for 48 hrs by sulforhodamine B spectrophotometric assay; assay type: functional
RXF 393 = experiment: Growth inhibition of human RXF 393 cells incubated for 48 hrs by sulforhodamine B spectrophotometric assay; assay type: functional
Hs-578T [4] = experiment: Growth inhibition of human Hs-578T cells incubated for 48 hrs by sulforhodamine B spectrophotometric assay; assay type: functional
HL-60 = experiment: Growth inhibition against human HL-60 cells assessed as total growth inhibitory concentration incubated for 48 hrs by sulforhodamine B spectrophotometric assay; assay type: functional
K562 [5] = experiment: Growth inhibition against human K562 cells assessed as total growth inhibitory concentration incubated for 48 hrs by sulforhodamine B spectrophotometric assay; assay type: functional
MOLT-4 [6] = experiment: Growth inhibition against human MOLT-4 cells assessed as total growth inhibitory concentration incubated for 48 hrs by sulforhodamine B spectrophotometric assay; assay type: functional
EKVX = experiment: Growth inhibition against human EKVX cells assessed as total growth inhibitory concentration incubated for 48 hrs by sulforhodamine B spectrophotometric assay; assay type: functional
SW-620 [7] = experiment: Growth inhibition against human SW620 cells assessed as total growth inhibitory concentration incubated for 48 hrs by sulforhodamine B spectrophotometric assay; assay type: functional
SNB-19 [8] = experiment: Growth inhibition against human SNB-19 cells assessed as total growth inhibitory concentration incubated for 48 hrs by sulforhodamine B spectrophotometric assay; assay type: functional
SK-MEL-28 = experiment: Growth inhibition against human SK-MEL-28 cells assessed as total growth inhibitory concentration incubated for 48 hrs by sulforhodamine B spectrophotometric assay; assay type: functional
A498 [9] = experiment: Growth inhibition against human A498 cells assessed as total growth inhibitory concentration incubated for 48 hrs by sulforhodamine B spectrophotometric assay; assay type: functional
CAKI-1 = experiment: Growth inhibition against human CAKI-1 cells assessed as total growth inhibitory concentration incubated for 48 hrs by sulforhodamine B spectrophotometric assay; assay type: functional
MDA-MB-231 [10] = experiment: Growth inhibition against human MDA-MB-231 cells assessed as total growth inhibitory concentration incubated for 48 hrs by sulforhodamine B spectrophotometric assay; assay type: functional
MOLT-4 [11] = experiment: Growth inhibition against human MOLT-4 cells assessed as lethal concentration incubated for 48 hrs by sulforhodamine B spectrophotometric assay; assay type: functional; conditions: read-out: LC50 (the source's name)
SR = experiment: Growth inhibition against human SR cells assessed as lethal concentration incubated for 48 hrs by sulforhodamine B spectrophotometric assay; assay type: functional; conditions: read-out: LC50 (the source's name)
NCI-H522 = experiment: Growth inhibition against human NCI-H522 cells assessed as lethal concentration incubated for 48 hrs by sulforhodamine B spectrophotometric assay; assay type: functional; conditions: read-out: LC50 (the source's name)
HCT-116 [12] = experiment: Growth inhibition against human HCT-116 cells assessed as lethal concentration incubated for 48 hrs by sulforhodamine B spectrophotometric assay; assay type: functional; conditions: read-out: LC50 (the source's name)
SW-620 [13] = experiment: Growth inhibition against human SW620 cells assessed as lethal concentration incubated for 48 hrs by sulforhodamine B spectrophotometric assay; assay type: functional; conditions: read-out: LC50 (the source's name)
SF-295 = experiment: Growth inhibition against human SF-295 cells assessed as lethal concentration incubated for 48 hrs by sulforhodamine B spectrophotometric assay; assay type: functional; conditions: read-out: LC50 (the source's name)
U-251 = experiment: Growth inhibition against human U-251 cells assessed as lethal concentration incubated for 48 hrs by sulforhodamine B spectrophotometric assay; assay type: functional; conditions: read-out: LC50 (the source's name)
Malme-3M = experiment: Growth inhibition against human Malme-3M cells assessed as lethal concentration incubated for 48 hrs by sulforhodamine B spectrophotometric assay; assay type: functional; conditions: read-out: LC50 (the source's name)
UACC-257 = experiment: Growth inhibition against human UACC-257 cells assessed as lethal concentration incubated for 48 hrs by sulforhodamine B spectrophotometric assay; assay type: functional; conditions: read-out: LC50 (the source's name)
IGROV-1 = experiment: Growth inhibition against human IGROV-1 cells assessed as lethal concentration incubated for 48 hrs by sulforhodamine B spectrophotometric assay; assay type: functional; conditions: read-out: LC50 (the source's name)
A498 [14] = experiment: Growth inhibition against human A498 cells assessed as lethal concentration incubated for 48 hrs by sulforhodamine B spectrophotometric assay; assay type: functional; conditions: read-out: LC50 (the source's name)
Hs-578T [15] = experiment: Growth inhibition against human Hs-578T cells assessed as lethal concentration incubated for 48 hrs by sulforhodamine B spectrophotometric assay; assay type: functional; conditions: read-out: LC50 (the source's name)
HCT-116 [16] = experiment: Cytotoxicity against human HCT-116 cells assessed as cell growth inhibition incubated for 72 hrs by MTT assay; assay type: functional, cell-based; conditions: HCT-116, 72 h
MCF7 = experiment: Cytotoxicity against human MCF7 cells assessed as cell growth inhibition incubated for 72 hrs by MTT assay; assay type: functional, cell-based; conditions: MCF7, 72 h
K562 [17] = experiment: Cytotoxicity against human K562 cells assessed as cell growth inhibition incubated for 72 hrs by MTT assay; assay type: functional, cell-based; conditions: K562, 72 h
CCRF-CEM [18] = experiment: Induction of cell cycle arrest in human CCRF-CEM cells assessed as accumulation of cells at S phase at 20.7 uM incubated for 24 hrs by propidium iodide staining based flow cytometry analysis (reference value: 41.09 +/- 0.5%); assay type: functional
CCRF-CEM [19] = experiment: Induction of cell cycle arrest in human CCRF-CEM cells assessed as accumulation of cells at higher G2/M phase at 20.7 uM incubated for 24 hrs by propidium iodide staining based flow cytometry analysis (reference value: 10.09 +/- 0.14%); assay type: functional
CCRF-CEM [20] = experiment: Induction of cell cycle arrest in human CCRF-CEM cells assessed as accumulation of cells at M phase at 20.7 uM incubated for 24 hrs by propidium iodide staining based flow cytometry analysis (reference value: 1.97 +/- 0.042%); assay type: functional
[21] = Acute toxicity in C57BL/6 mouse assessed as ratio of lung weight to body weight at 20 mg/kg,ip administration and observed after 22 days (reference value: 0.8 +/- 0.09); assay type: organism-based; conditions: in vivo, 528 h, time 22 day
KB 3-1 = experiment: Induction of apoptosis in human KB 3-1 cells assessed as increase in BIP protein expression at 0.5 to 5 uM incubated for 3 hrs by Western blotting assay; assay type: functional, cell-based; conditions: dose 0.5-5 µM
MDA-MB-231 [22] = experiment: Induction of apoptosis in human MDA-MB-231 cells assessed as increase in caspase 3/7 activity at 10 uM incubated for 24 hrs by flow cytometry analysis; assay type: functional

O=C1C2=C(C(=O)c3c(O)cccc31)C(c1ccco1)c1sc(=O)[nH]c1S2 (centres undefined)
GI50 (MOLT-4 [1]): 2.71 µM
GI50 (SW-620 [2]): 3.28 µM
GI50 (SF-539): 1.93 µM
GI50 (SNB-19 [3]): 2.6 µM
GI50 (LOX IMVI): 2.21 µM
GI50 (MDA-MB-435): 1.16 µM
GI50 (SK-MEL-2): 3.51 µM
GI50 (OVCAR-3): 2.86 µM
GI50 (OVCAR-4): 1.79 µM
GI50 (SK-OV-3): 15.5 µM
GI50 (786-0): 7.09 µM
GI50 (RXF 393): 2.02 µM
GI50 (Hs-578T [4]): 2.2 µM
TGI (HL-60): 6.09 µM
TGI (K562 [5]): > 100 µM
TGI (MOLT-4 [6]): 9.88 µM
TGI (EKVX): 19.4 µM
TGI (SW-620 [7]): 10.5 µM
TGI (SNB-19 [8]): 7.33 µM
TGI (SK-MEL-28): 3.72 µM
TGI (A498 [9]): 9.69 µM
TGI (CAKI-1): 13.9 µM
TGI (MDA-MB-231 [10]): 9.08 µM
CC50 (MOLT-4 [11]): > 100 µM
CC50 (SR): > 100 µM
CC50 (NCI-H522): 26.4 µM
CC50 (HCT-116 [12]): > 100 µM
CC50 (SW-620 [13]): 52.7 µM
CC50 (SF-295): 6.5 µM
CC50 (U-251): 35.7 µM
CC50 (Malme-3M): 4.75 µM
CC50 (UACC-257): 6.75 µM
CC50 (IGROV-1): 38 µM
CC50 (A498 [14]): 31.6 µM
CC50 (Hs-578T [15]): > 100 µM
IC50 (HCT-116 [16]): 0.6 µM
IC50 (MCF7): 3.08 µM
IC50 (K562 [17]): 5.98 µM
Activity (CCRF-CEM [18]): 42.33%
Activity (CCRF-CEM [19]): 20.54%
Activity (CCRF-CEM [20]): 1.7%
Ratio [21]: 0.82
Activity (KB 3-1): inactive
Activity (MDA-MB-231 [22]): 20.6%
